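A five-concentration, 48-hour dose response in 96-well plates underlies each endpoint, interpolated linearly between surrounding concentrations. At the TGI there is no net growth.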
test system: COLO 205 colon; assay: DTP human tumour cell line panel, 48 h

Question: With `CC/C(N)=N\NC(=O)OC(C)(C)C` as the compound, how does the TGI read?
Answer: > 100 µM

Question: For `CC(=O)NC1C(OCc2ccccc2)OC(CO)C(O)C1OCC(=O)N[C@@H](C)C(=O)N[C@H](CCC(=O)NCCCNc1ccc([N+](=O)[O-])c2[nH]c3ccccc3c(=O)c12)C(N)=O` (stereo partly drawn), which TGI is on record?
Answer: > 100 µM

Question: For `CCOC(=O)c1cc(Br)c(-c2cc(C)co2)[nH]1`, which TGI is on record?
Answer: > 100 µM

Question: For `O=P(O)(O)CN1CCNCCN(CP(=O)(O)O)CC1`, which TGI is on record?
Answer: 18.7 µM

Question: Which TGI does the source give for `c1cc2c(cc1C1=NCCN1)c1cc(C3=NCCN3)ccc1n2CC1CCCCC1` here?
Answer: 20.4 µM

test system: SNB-75 CNS; assay: DTP human tumour cell line panel, 48 h

Question: How did the TGI turn out when `COc1cc2c3c(cc(Cl)nc3c1OC)C(O)(CC(=O)c1ccccc1)C(=O)N2` (stereo not drawn) was run?
Answer: 28.6 µM

Question: With `Cc1ccc(S[C@@H](C)[C@@](O)(C(N)=O)c2ccccc2)cc1` as the compound, how does the TGI read?
Answer: > 100 µM

Question: With `CN1CCN([C@H]2C[C@H]3[C@@H]4CC=C5C[C@@H](O)CC[C@]5(C)[C@H]4CC[C@]3(C)[C@H]2O)CC1` as the compound, how does the TGI read?
Answer: 97.4 µM

Question: With `CC(C)c1ccc(/C=C2\CSCC3=C2N=C2SCC(=O)N2C3c2ccc(C(C)C)cc2)cc1` (stereo not drawn) as the compound, how does the TGI read?
Answer: > 100 µM

Question: For `CCOC(=O)CCC(NC(=O)c1ccc(Nc2nc3ccccc3nc2C(=O)OCC)cc1)C(=O)OCC` (stereo not drawn), which TGI is on record?
Answer: 6.16 µM

Question: With `CC(=O)c1sc2[n+](c1C)C(=O)/C(=C\c1ccccc1Cl)S2` as the compound, how does the TGI read?
Answer: 65.9 µM

Question: Which TGI does the source give for `CC(NC(=O)C(Cc1ccc(OC(=O)c2ccccc2)cc1)NC(=O)OC(C)(C)C)C(=O)NCC(=O)NC(Cc1ccccc1)C(=O)NN` (stereo not drawn) here?
Answer: > 100 µM

Question: How did the TGI turn out when `C[C@H](CCC(=O)NCC(=O)O)[C@H]1CC[C@H]2[C@@H]3[C@H](O)C[C@@H]4C[C@H](O)CC[C@]4(C)[C@H]3CC[C@]12C` was run?
Answer: > 100 µM

Question: With `CN(C)/C=C/C=C(/C=N/S(=O)(=O)C(F)(F)F)C1C=CN(S(=O)(=O)C(F)(F)F)C=C1` as the compound, how does the TGI read?
Answer: 50.6 µM

Question: With `Cc1cc(=O)oc2c(CNC(CC(C)C)C(=O)O)c(O)ccc12` (stereo not drawn) as the compound, how does the TGI read?
Answer: > 100 µM

Question: How did the TGI turn out when `COC1CC(OC2C(C)OC(OC3C(C)OC(OC4C(C)OC(O[C@H]5CC[C@@]6(C)C(=CC[C@]7(O)[C@@H]6C[C@@H](O)[C@@]6(C)[C@]7(O)CC[C@@]6(O)C(C)=O)C5)CC4OC)CC3OC)CC2OC)OC(C)C1O` (stereo partly drawn) was run?
Answer: > 12.5 µM

Question: How did the TGI turn out when `Cc1ccc2c(c1C)C(=O)/C(=C/c1cccc(C)c1C(=O)O)C2` was run?
Answer: > 100 µM

Question: For `O=C1N(c2ccccc2)C(=S)/C(=C/c2ccc(Cl)cc2)N1c1ccc(Cl)cc1`, which TGI is on record?
Answer: 56.2 µM

Question: Which TGI does the source give for `O=C1C=C(N2CCN(CCOCCO)CC2)C(=O)c2c(O)ccc(O)c21` here?
Answer: 30.6 µM

Question: With `CC/C(N)=N\NC(=O)OC(C)(C)C` as the compound, how does the TGI read?
Answer: > 100 µM

Question: How did the TGI turn out when `CC(=O)NC1C(OCc2ccccc2)OC(CO)C(O)C1OCC(=O)N[C@@H](C)C(=O)N[C@H](CCC(=O)NCCCNc1ccc([N+](=O)[O-])c2[nH]c3ccccc3c(=O)c12)C(N)=O` (stereo partly drawn) was run?
Answer: > 100 µM

Question: How did the TGI turn out when `CCOC(=O)c1cc(Br)c(-c2cc(C)co2)[nH]1` was run?
Answer: > 100 µM

Question: Which TGI does the source give for `O=P(O)(O)CN1CCNCCN(CP(=O)(O)O)CC1` here?
Answer: > 100 µM

Question: How did the TGI turn out when `c1cc2c(cc1C1=NCCN1)c1cc(C3=NCCN3)ccc1n2CC1CCCCC1` was run?
Answer: 30.6 µM

test system: OVCAR-5 ovarian; assay: DTP human tumour cell line panel, 48 h

Question: With `COc1cc2c3c(cc(Cl)nc3c1OC)C(O)(CC(=O)c1ccccc1)C(=O)N2` (stereo not drawn) as the compound, how does the TGI read?
Answer: 35.3 µM

Question: How did the TGI turn out when `Cc1ccc(S[C@@H](C)[C@@](O)(C(N)=O)c2ccccc2)cc1` was run?
Answer: > 100 µM

Question: For `CN1CCN([C@H]2C[C@H]3[C@@H]4CC=C5C[C@@H](O)CC[C@]5(C)[C@H]4CC[C@]3(C)[C@H]2O)CC1`, which TGI is on record?
Answer: > 82.8 µM

Question: How did the TGI turn out when `CC(C)c1ccc(/C=C2\CSCC3=C2N=C2SCC(=O)N2C3c2ccc(C(C)C)cc2)cc1` (stereo not drawn) was run?
Answer: > 100 µM

Question: With `CCOC(=O)CCC(NC(=O)c1ccc(Nc2nc3ccccc3nc2C(=O)OCC)cc1)C(=O)OCC` (stereo not drawn) as the compound, how does the TGI read?
Answer: > 56.4 µM

Question: How did the TGI turn out when `CC(=O)c1sc2[n+](c1C)C(=O)/C(=C\c1ccccc1Cl)S2` was run?
Answer: 50.1 µM

Question: `CC(NC(=O)C(Cc1ccc(OC(=O)c2ccccc2)cc1)NC(=O)OC(C)(C)C)C(=O)NCC(=O)NC(Cc1ccccc1)C(=O)NN` (stereo not drawn) was tested. Which TGI did it give?
Answer: > 100 µM

Question: How did the TGI turn out when `C[C@H](CCC(=O)NCC(=O)O)[C@H]1CC[C@H]2[C@@H]3[C@H](O)C[C@@H]4C[C@H](O)CC[C@]4(C)[C@H]3CC[C@]12C` was run?
Answer: > 100 µM

Question: For `CN(C)/C=C/C=C(/C=N/S(=O)(=O)C(F)(F)F)C1C=CN(S(=O)(=O)C(F)(F)F)C=C1`, which TGI is on record?
Answer: 91.7 µM

Question: With `Cc1cc(=O)oc2c(CNC(CC(C)C)C(=O)O)c(O)ccc12` (stereo not drawn) as the compound, how does the TGI read?
Answer: > 100 µM

Question: For `COC1CC(OC2C(C)OC(OC3C(C)OC(OC4C(C)OC(O[C@H]5CC[C@@]6(C)C(=CC[C@]7(O)[C@@H]6C[C@@H](O)[C@@]6(C)[C@]7(O)CC[C@@]6(O)C(C)=O)C5)CC4OC)CC3OC)CC2OC)OC(C)C1O` (stereo partly drawn), which TGI is on record?
Answer: > 12.5 µM

Question: With `Cc1ccc2c(c1C)C(=O)/C(=C/c1cccc(C)c1C(=O)O)C2` as the compound, how does the TGI read?
Answer: > 100 µM

Question: `O=C1N(c2ccccc2)C(=S)/C(=C/c2ccc(Cl)cc2)N1c1ccc(Cl)cc1` was tested. Which TGI did it give?
Answer: > 100 µM

Question: `O=C1C=C(N2CCN(CCOCCO)CC2)C(=O)c2c(O)ccc(O)c21` was tested. Which TGI did it give?
Answer: 12.8 µM

Question: How did the TGI turn out when `CC/C(N)=N\NC(=O)OC(C)(C)C` was run?
Answer: > 100 µM

Question: Which TGI does the source give for `CC(=O)NC1C(OCc2ccccc2)OC(CO)C(O)C1OCC(=O)N[C@@H](C)C(=O)N[C@H](CCC(=O)NCCCNc1ccc([N+](=O)[O-])c2[nH]c3ccccc3c(=O)c12)C(N)=O` (stereo partly drawn) here?
Answer: > 100 µM

Question: `CCOC(=O)c1cc(Br)c(-c2cc(C)co2)[nH]1` was tested. Which TGI did it give?
Answer: > 100 µM

Question: How did the TGI turn out when `O=P(O)(O)CN1CCNCCN(CP(=O)(O)O)CC1` was run?
Answer: > 100 µM

Question: How did the TGI turn out when `c1cc2c(cc1C1=NCCN1)c1cc(C3=NCCN3)ccc1n2CC1CCCCC1` was run?
Answer: 95.6 µM

Reference: PubChem BioAssay (NCI)
